Results reported in US12274704B2, “9,11-secosteroids and the use of 9,11-secosteroids in preparing pharmaceutical compositions for inhibiting inflammation” (Chang Gung University of Science and Technology, priority 2020, dated 2025).

Tests used:
[1] = tested on: fMLF/CB-induced human neutrophils; assay: Elastase release in fMLF/CB-induced human neutrophils; assay type: cell-based; conditions: for IC50: mean ± S.E.M. (n = 3 or 4); for inhibition at 10 µM / Elastase Release Inhibition (%): at 10 μM concentration, mean ± S.E.M.
Protocol: (§1) Blood samples were collected from healthy adult donors (20-32 years) via venipuncture in accordance with the standard protocol approved by the local institutional review board. Human neutrophils were isolated from peripheral blood through dextran sedimentation, centrifugation in a Ficoll-Hypaque gradient, and hypotonic lysis of red blood cells.
(§2) In accordance with the above-mentioned protocol, assays were performed to measure superoxide anion generation based on the superoxide dismutase-inhibitable reduction of ferricytochrome c; methoxy-succinyl-alanyl-alanyl-prolyl-valine-p-nitroanilide (MeO-Suc-Ala-Ala-Pro-Val-p-nitroanilide) was used as the enzyme substrate for the detection of elastase release.

[2] = tested on: fMLF/CB-induced human neutrophils; assay: Superoxide anion generation in fMLF/CB-induced human neutrophils; assay type: cell-based; conditions: for IC50: mean ± S.E.M. (n = 3 or 4); for inhibition at 10 µM / Superoxide Anion Inhibition (%): at 10 μM concentration, mean ± S.E.M.
Protocol: as §1, §2

FPR1 receptor = target: T1, FPR1 receptor (Homo sapiens, UniProt P21462); assay: FPR1 receptor binding assay (fNLFNYK, flow cytometry) in human neutrophils; conditions: 10 μM test substance, fNLFNYK 2 nM
T1 construct: endogenous in cells; host or cells: human neutrophils
T1 sequence (P21462 1-350): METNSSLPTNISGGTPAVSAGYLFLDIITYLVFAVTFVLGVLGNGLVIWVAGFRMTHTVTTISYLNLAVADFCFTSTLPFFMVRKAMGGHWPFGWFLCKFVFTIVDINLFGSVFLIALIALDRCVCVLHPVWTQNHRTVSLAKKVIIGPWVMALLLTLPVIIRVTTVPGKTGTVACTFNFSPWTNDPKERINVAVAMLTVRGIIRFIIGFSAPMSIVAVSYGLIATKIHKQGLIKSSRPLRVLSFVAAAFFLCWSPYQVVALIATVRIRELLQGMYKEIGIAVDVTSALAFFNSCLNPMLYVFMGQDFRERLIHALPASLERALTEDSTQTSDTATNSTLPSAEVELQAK
Protocol: Receptor binding assays of the present invention were performed via FACScan™ flow Cytometer analysis of N-formyl-Nle-Leu-Phe-Nle-Tyr-Lys-fluorescein (fNLFNYK; a fluorescent analog of N-formylmethionyl-leucyl-phenylalanine (fMLF)) binding to receptor of human neutrophils; The neutrophils were preincubated with test compounds at 4° C. for 5 min and then labelled with fNLFNYK for 30 min, then the cells were immediately analyzed via flow cytometry.
The receptor-binding assay is based on the binding between N-formyl-Nle-Leu-Phe-Nle-Tyr-Lys-fluorescein (fNLFNYK) and the […] receptor of human neutrophil.

C=C(CC[C@@H](C)C1CCC([C@H]2CC=C3C[C@@H](O)CC[C@]3(C)C2=O)[C@]1(C)CCO)C(C)C (stereo partly drawn) [Compound 3, 8αH-3β,11-dihydroxy-24-methylene-9,11-secocholest-5-en-9-one]
IC50 ([1]; Homo sapiens, Neutrophil): 1.63 to 8.07 µM | inhibition at 10 µM ([1]; Neutrophil): 112 ± 5.01% | IC50 [1]: 3.12 ± 0.07 µM | IC50 ([2]; Homo sapiens, Neutrophil): 1.63 to 8.07 µM | inhibition at 10 µM ([2]; Neutrophil): 90.5 ± 2.44% | IC50 [2]: 1.97 ± 0.12 µM

C=C(CC[C@@H](C)C1CCC([C@@H]2CC=C3C[C@@H](O)CC[C@]3(C)C2=O)[C@]1(C)CCO)C(C)C (stereo partly drawn) [Compound 4, 8βH-3β,11-dihydroxy-24-methylene-9,11-secocholest-5-en-9-one]
IC50 ([1]; Homo sapiens, Neutrophil): 1.63 to 8.07 µM | inhibition at 10 µM ([1]; Neutrophil): 93.7 ± 1.23% | IC50 [1]: 1.63 ± 0.15 µM | IC50 ([2]; Homo sapiens, Neutrophil): 1.63 to 8.07 µM | inhibition at 10 µM ([2]; Neutrophil): 91.1 ± 4.51% | IC50 [2]: 2.96 ± 0.91 µM

CC(C)[C@@H](C)CC[C@@H](C)[C@H]1CC[C@@H]([C@@H]2CC=C3C[C@@H](O)CC[C@]3(C)C2=O)[C@]1(C)CCO [Compound 6, (24S)-3β,11-dihydroxy-24-methyl-9,11-secocholest-5-en-9-one]
Elastase Release Inhibition (%) [1]: 25.38 ± 6.68 % | IC50 [1]: > 10 µM | Superoxide Anion Inhibition (%) [2]: 60.51 ± 4.06 % | IC50 [2]: 4.09 ± 0.5 µM

CC(C)[C@@H](C)[C@@]1(C)C[C@@H]1[C@@H](C)[C@H]1CC[C@@H]([C@@H]2CC=C3C[C@@H](O)CC[C@]3(C)C2=O)[C@]1(C)CCO [Compound 7, 3β,11-dihydroxy-9,11-secogorgost-5-en-9-one]
Elastase Release Inhibition (%) [1]: 18.87 ± 3.86 % | IC50 [1]: > 10 µM | Superoxide Anion Inhibition (%) [2]: 10.29 ± 5.42 % | IC50 [2]: > 10 µM

leptosterol A [Compound 5]
Elastase Release Inhibition (%) [1]: 86.32 ± 2.91 % | IC50 [1]: 4.73 ± 0.57 µM | Superoxide Anion Inhibition (%) [2]: 57.93 ± 2.30 % | IC50 [2]: 8.07 ± 0.53 µM

sinleptosterol A [Compound 1]
binding to FPR1 receptor (inhibition of fNLFNYK binding) (FPR1 receptor): low affinity | Elastase Release Inhibition (%) [1]: 65.04 ± 2.76 % | IC50 [1]: 7.57 ± 0.4 µM | Superoxide Anion Inhibition (%) [2]: 64.76 ± 3.42 % | IC50 [2]: 7.07 ± 0.52 µM

sinleptosterol B [Compound 2]
Elastase Release Inhibition (%) [1]: 105.09 ± 5.25 % | IC50 [1]: 4.29 ± 0.25 µM | Superoxide Anion Inhibition (%) [2]: 76.30 ± 5.09 % | IC50 [2]: 4.68 ± 0.57 µM
